The IC50 is the concentration that gives 50% inhibition. A high value points to lower potency.

Format in all cases: cell-based
One assay relates to BaF3 KRAS G12C cells. Description: MTT assay for cell viability in 96 well cell culture plate. To be noted: Mus musculus, 48 h treatment. (Tetrazolium dyes change colour on reduction, which living cells bring about.)
A further assay relates to sNF96.2 cells. Kind of assay: RASOpathie-Model, MTT assay for cell viability in 96 well cell culture plate. Particulars: 48 h treatment. The method, then:
FIG. 5: RASOpathie-Model of Mitoxantrone HCl; MTT assay for cell viability in 96 well cell culture plate
Cells were treated with Mitoxantrone HCl for 48 h and cell viability was evaluated by MTT assay. DMSO-treated cells were set as 1. The results shown are mean±SEM from 3 independent experiments.

Assay [1] concerns KRAS mutants (G12V, G12C, G12D, G12C/Y96D, G13C, G13D, G13S, Q61K and Q61R). Kind of assay: NanoBiT assay for RAS GTP-loading in HeLa cells, LgBit-KRAS mutants and SmBit-CRAF-RBD. To be noted: 2 h in serum-free DMEM, normalized to DMSO. On the procedure: NanoBiT assay for the RAS GTP-loading was performed in HeLa cells transfected with LgBit-KRAS mutants and SmBit-CRAF-RBD. Cells were treated with Mitoxantrone HCl for 2 h in serum-free DMEM. After incubation, the substrate for NanoLuc was added, and the luminescence was measured in a multiplate reader. Data were normalized to cells transfected with the indicated mutant and exposed to DMSO for 2 h. DMSO-treated cells were set as 1. The bars represent mean±SEM from 3 independent experiments.

In assay [2] the test system is BaF3 KRAS G12C/Y96D cells. Kind of assay: MTT assay for cell viability in 96 well cell culture plate. Particulars: Mus musculus, 48 h treatment.
The subject of another assay is T24 cells. Description: Soft agar colony formation assay with MTT readout. Particulars: Homo sapiens; growth in soft agar, colonies stained with MTT, absorbance 570 nm, 3 independent experiments. On the procedure: (§1) Metabolic activity was quantified using Cell Proliferation Kit I (Roche, Basel, Switzerland). Cells were seeded in 96-well cell culture plates, using 5000 cells per well for NCI-H358 cells. After treatment, 10 μl of MTT solution was added and incubated for 2 h in CO2 incubator. Then 100 μl of solubilization buffer was added to each well and incubated overnight in CO2 incubator. Cell viability, assessed by the amount of metabolized MTT, was quantified by measuring absorbance at 570 nm.
(§2) MTT assay for the growth of different tumor cell lines with RAS mutations in soft agar with Mitoxantrone hydrochloride. Shown are data from three independent experiments. NCI-H358, H358, H2122, ASPC-1, HCT-116, T24 and HT1080 cells were used for the soft agar colony formation assay. After the treatment with Mitoxantrone HCl, the colonies were stained with MTT and the value was quantified by measuring absorbance at 570 nm after solubilization. The results represent mean±SEM from 3 independent experiments.

The test system of another assay is HCT-116 cells. Kind of assay: Soft agar colony formation assay with MTT readout. Particulars: Homo sapiens, growth in soft agar, colonies stained with MTT, absorbance 570 nm, 3 independent experiments. On the procedure: as §1, §2
The test system of a further assay is NCI-H358 cells. Kind of assay: Soft agar colony formation assay with MTT readout. Particulars: Homo sapiens, growth in soft agar, colonies stained with MTT, absorbance 570 nm, 3 independent experiments. On the procedure:
as §1, §2

In a further assay the test system is HT1080 cells. Description: Soft agar colony formation assay with MTT readout. Particulars: Homo sapiens, HT-1080; growth in soft agar, colonies stained with MTT, absorbance 570 nm, 3 independent experiments. On the procedure: as §1, §2
The test system of another assay is NCI-H2122 cells. Kind of assay: Soft agar colony formation assay with MTT readout. Particulars: Homo sapiens, growth in soft agar, colonies stained with MTT, absorbance 570 nm, 3 independent experiments. The method, then: as §1, §2
The next assay deals with ASPC1 cells. Description: Soft agar colony formation assay with MTT readout. To be noted: Homo sapiens, growth in soft agar, colonies stained with MTT, absorbance 570 nm, 3 independent experiments. On the procedure:
as §1, §2

The next assay addresses T1, NRAS G12V (Homo sapiens, UniProt P01111, G12V).
T1 construct: K, N and HRAS G12V (full length) was cloned with Xho I and Bgl Ito LgBit; expressed in transfected cells
Description: NanoBit assay for RAS activation (LgBiT-RAS / SmBiT-CRAF RBD). To be noted: 2 h with inhibitor in serum free DMEM. On the procedure:
(§3) N-terminal LgBiT and C-terminal SmBiT construct was purchased from Promega and K, N and HRAS G12V (full length) was cloned with Xho I and Bgl Ito LgBit and CRAF Ras binding domain (1-149) was cloned with EcoRI and Bgl II to SmBit. For transfections, 1 μg or 2 μg of (12 well/6 well) plasmids were transfected into cells with 0.5 mM of PEI reagent in 100 μl or 200 μl PBS. One day after transfection, cells were harvested and seeded into 96 well white plates, half area (Greiner). After an additional day the medium was changed to serum free DMEM and the cells were incubated for 2 h with inhibitor. NanoGlo assay was performed according to the manufacturer's instructions. The luminescence was measured using Tecan infinite (Tecan).

The target of the next assay is T2, KRAS G12V (Homo sapiens, UniProt P01116, G12V).
T2 construct: K, N and HRAS G12V (full length) was cloned with Xho I and Bgl Ito LgBit; expressed in transfected cells
The description is as above. To be noted: 2 h with inhibitor in serum free DMEM. The method, then: as §3

In a further assay the target is T3, HRAS G12V (Homo sapiens, UniProt P01112, G12V).
T3 construct: K, N and HRAS G12V (full length) was cloned with Xho I and Bgl Ito LgBit; expressed in transfected cells
The assay is described as above. To be noted: 2 h with inhibitor in serum free DMEM. The method, then:
as §3

T1 sequence (P01111 whole entry G12V): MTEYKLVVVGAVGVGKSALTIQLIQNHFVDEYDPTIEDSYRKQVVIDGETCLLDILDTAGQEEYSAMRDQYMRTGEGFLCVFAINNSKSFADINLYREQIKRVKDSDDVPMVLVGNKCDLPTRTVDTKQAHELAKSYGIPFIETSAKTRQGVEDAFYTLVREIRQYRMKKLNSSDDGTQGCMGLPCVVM

For `Cl.Cl.O=C1c2c(O)ccc(O)c2C(=O)c2c(NCCNCCO)ccc(NCCNCCO)c21` [Mitoxantrone HCl, 1,4-dihydroxy-5,8-bis({2-[(2-hydroxy-ethyl)amino]ethyl}amino)-9,10-anthrachinone dihydrochloride], the IC50 in the assay with BaF3 KRAS G12C cells worked out at 24.2 µM; with sNF96.2 cells, 3.71 µM; in assay [2] it was 24 µM; with T24 cells it was 0.43 µM; in the assay with HCT-116 cells, 0.27 µM; with NCI-H358 cells it was 1.5 µM. Also, the IC50 with HT1080 cells was determined as 0.13 µM; with NCI-H2122 cells, 0.25 µM; in the assay with ASPC1 cells, 0.6 µM. Further, the “RAS activation / GTP-loading of KRAS mutants (NanoBiT luminescence)” value in [1] is listed as “inhibits”. Moreover, the “RAS activation, N-RAS (NanoBit luminescence)” value on NRAS G12V is “inhibits”. The “RAS activation, K-RAS (NanoBit luminescence)” value on KRAS G12V is “inhibits”. Besides, the “RAS activation, H-RAS (NanoBit luminescence)” value at HRAS G12V is on record as “inhibits”.

The values above are taken from patent US20250339387A1, “MITOXANTHRONE DERIVATIVES AS RAS INHIBITORS” (KHR Biotec GmbH, priority 2022, published 2025).
